System: GNS166 cells

C#CCN(Cc1cc2cc(OCCCN3CCCCC3)ccc2n1S(=O)(=O)c1ccccc1)C(=O)CCCCCCC(=O)NO [DDI]
A2M log2FoldChange: 2.665 | ABCD2 log2FoldChange: 5.236 | ABCG1 log2FoldChange: 3.412 | ABLIM2 log2FoldChange: 4.711 | ABLIM3 log2FoldChange: 3.639 | ACSL6 log2FoldChange: 2.978 | ACSM3 log2FoldChange: 2.457 | ACTBL2 log2FoldChange: 4.551 | ADAMTS2 log2FoldChange: 6.235 | ADAMTS7 log2FoldChange: 2.1929 | ADAMTS8 log2FoldChange: 3.596 | ADCYAP1R1 log2FoldChange: 3.806 | ADGRG4 log2FoldChange: 6.334 | ADRB1 log2FoldChange: 2.369 | AKR1C3 log2FoldChange: 4.683 | ALDH1A1 log2FoldChange: 3.2419 | ALPL log2FoldChange: 3.15 | AMER2 log2FoldChange: 3.985 | ANGPTL4 log2FoldChange: 2.513 | ANGPTL6 log2FoldChange: 3.595 | ANKRD1 log2FoldChange: 3.607 | ANKRD24 log2FoldChange: 3.419 | ANO5 log2FoldChange: 4.46 | ANOS1 log2FoldChange: 4.667 | APC2 log2FoldChange: 2.08 | ARHGAP4 log2FoldChange: 2.074 | ARMH1 log2FoldChange: 2.688 | ARPP21 log2FoldChange: 2.016 | ASPHD1 log2FoldChange: 2.1055 | ASXL3 log2FoldChange: 3.768 | ATCAY log2FoldChange: 4.501 | ATP6V1C2 log2FoldChange: 2.012 | AZIN2 log2FoldChange: 3.645 | B3GALT1 log2FoldChange: 2.502 | BAIAP3 log2FoldChange: 2.116 | BEST1 log2FoldChange: 2.175 | BMF log2FoldChange: 2.488 | BMP7 log2FoldChange: 2.795 | BRINP1 log2FoldChange: 6.679 | C2orf81 log2FoldChange: 2.053 | C5AR1 log2FoldChange: 2.131 | C14orf132 log2FoldChange: 5.7 | CACNA1H log2FoldChange: 4.953 | CACNA2D2 log2FoldChange: 5.172 | CADM3 log2FoldChange: 6.675 | CALHM5 log2FoldChange: 2.928 | CALY log2FoldChange: 5.625 | CAMK2N2 log2FoldChange: 2.028 | CARMIL2 log2FoldChange: 3.403 | CARMIL3 log2FoldChange: 3.869 | CCDC39 log2FoldChange: 4.487 | CCDC92B log2FoldChange: 5.8 | CCDC110 log2FoldChange: 2.494 | CCDC148 log2FoldChange: 2.41 | CCDC160 log2FoldChange: 2.467 | CCDC181 log2FoldChange: 2.436 | CCDC183 log2FoldChange: 2.45 | CCM2L log2FoldChange: 4.732 | CD22 log2FoldChange: 2.4858 | CDYL2 log2FoldChange: 2.827 | CECR2 log2FoldChange: 4.106 | CELF5 log2FoldChange: 4.62 | CFAP43 log2FoldChange: 2.577 | CFAP54 log2FoldChange: 2.381 | CFAP57 log2FoldChange: 3.908 | CFAP298-TCP10L log2FoldChange: 2.613 | CHGB log2FoldChange: 2.484 | CHRD log2FoldChange: 2.364 | CHST9 log2FoldChange: 3.903 | CKMT1A log2FoldChange: 5.211 | CLEC19A log2FoldChange: 2.635 | CLIC5 log2FoldChange: 2.4345 | COL2A1 log2FoldChange: 3.044 | COL6A3 log2FoldChange: 4.472 | CPED1 log2FoldChange: 2.118 | CPLX1 log2FoldChange: 3.672 | CPM log2FoldChange: 2.471 | CRABP1 log2FoldChange: 4.4 | CRTAC1 log2FoldChange: 4.102 | CRYAB log2FoldChange: 3.702 | CSMD2 log2FoldChange: 3.997 | CSRNP3 log2FoldChange: 2.27 | CTSH log2FoldChange: 2.081 | CYP1A1 log2FoldChange: 3.053 | CYP2S1 log2FoldChange: 2.662 | CYP4F22 log2FoldChange: 6.411 | DAPL1 log2FoldChange: 2.233 | DCAF8L1 log2FoldChange: 5.4838 | DDIT4L log2FoldChange: 2.364 | DENND6B log2FoldChange: 2.257 | DGKI log2FoldChange: 3.175 | DHH log2FoldChange: 3.784 | DLL3 log2FoldChange: 3.7947 | DLX3 log2FoldChange: 2.236 | DMBX1 log2FoldChange: 2.746 | DNAAF1 log2FoldChange: 4.023 | DNAH7 log2FoldChange: 3.23 | DNAI1 log2FoldChange: 4.453 | DNAI3 log2FoldChange: 2.636 | DNAI7 log2FoldChange: 4.138 | DOCK5 log2FoldChange: 2.9913 | DTX1 log2FoldChange: 4.306 | DUSP9 log2FoldChange: 2.25 | EAF2 log2FoldChange: 2.082 | EDA log2FoldChange: 4.8176 | EFCAB12 log2FoldChange: 2.979 | EGFL7 log2FoldChange: 2.196 | EGLN3 log2FoldChange: 2.576 | EID3 log2FoldChange: 2.42 | ELAPOR2 log2FoldChange: 4.1571 | ELOVL3 log2FoldChange: 3.984 | EPHB6 log2FoldChange: 4.725 | ERBB3 log2FoldChange: 2.384 | ERVV-1 log2FoldChange: 6.315 | FAIM2 log2FoldChange: 2.169 | FAM43B log2FoldChange: 2.485 | FAM71F1 log2FoldChange: 2.207 | FAM78A log2FoldChange: 2.232 | FAM107A log2FoldChange: 2.013 | FAM131C log2FoldChange: 2.228 | FANK1 log2FoldChange: 2.642 | FAT2 log2FoldChange: 2.483 | FBLN2 log2FoldChange: 5.485 | FBLN5 log2FoldChange: 4.419 | FBXO2 log2FoldChange: 2.58 | FGF13 log2FoldChange: 3.276 | FIBIN log2FoldChange: 2.106 | FKBP1B log2FoldChange: 2.251 | FOLR1 log2FoldChange: 2.626 | FOXO6 log2FoldChange: 2.278 | FRK log2FoldChange: 2.849 | FSTL5 log2FoldChange: 5.479 | FXYD6 log2FoldChange: 4.385 | GABRB1 log2FoldChange: 3.597 | GABRD log2FoldChange: 5.7221 | GABRQ log2FoldChange: 7.349 | GALNT6 log2FoldChange: 2.317 | GDPD1 log2FoldChange: 2.176 | GFY log2FoldChange: 3.527 | GLB1L2 log2FoldChange: 6.148 | GNG4 log2FoldChange: 2.04 | GNG8 log2FoldChange: 3.102 | GPC3 log2FoldChange: 3.37 | GPC5 log2FoldChange: 2.595 | GRB14 log2FoldChange: 2.215 | GRHL3 log2FoldChange: 2.762 | GRIA2 log2FoldChange: 4.688 | GRIA4 log2FoldChange: 3.3 | GRID2IP log2FoldChange: 3.773 | GRIN3B log2FoldChange: 5.631 | GSTO2 log2FoldChange: 2.18 | HAND1 log2FoldChange: 4.809 | HAPLN3 log2FoldChange: 2.0919 | HBA1 log2FoldChange: 5.471 | HBA2 log2FoldChange: 4.292 | HEPHL1 log2FoldChange: 2.403 | HGF log2FoldChange: 3.276 | HHIP log2FoldChange: 3.119 | HIF3A log2FoldChange: 5.349 | HLA-DMB log2FoldChange: 2.342 | HMCN2 log2FoldChange: 3.444 | HOATZ log2FoldChange: 4.467 | HOXA13 log2FoldChange: 2.2385 | HPCAL4 log2FoldChange: 5.769 | HSPA2 log2FoldChange: 3.557 | HTR6 log2FoldChange: 3.33 | ID4 log2FoldChange: 2.033 | IER3 log2FoldChange: 2.061 | IFITM10 log2FoldChange: 2.3164 | IGFBP3 log2FoldChange: 2.818 | IGFN1 log2FoldChange: 4.535 | IGLON5 log2FoldChange: 3.821 | IGSF1 log2FoldChange: 6.9503 | IGSF9 log2FoldChange: 5.356 | IGSF11 log2FoldChange: 3.128 | IL1A log2FoldChange: 2.307 | IL18R1 log2FoldChange: 2.881 | IL21R log2FoldChange: 5.107 | INSRR log2FoldChange: 3.812 | INSYN1 log2FoldChange: 2.89 | ITGAX log2FoldChange: 6.404 | ITIH5 log2FoldChange: 7.18 | JAK3 log2FoldChange: 3.281 | JAKMIP1 log2FoldChange: 6.861 | JPH3 log2FoldChange: 7.177 | JPH4 log2FoldChange: 6.374 | KCNH7 log2FoldChange: 3.228 | KCNK3 log2FoldChange: 2.911 | KCNN1 log2FoldChange: 6.119 | KCNN3 log2FoldChange: 2.959 | KCNQ2 log2FoldChange: 7.079 | KCNQ3 log2FoldChange: 6.35 | KCNU1 log2FoldChange: 3.505 | KDR log2FoldChange: 2.185 | KIAA1755 log2FoldChange: 3.46 | KIF26A log2FoldChange: 3.322 | KIRREL2 log2FoldChange: 3.351 | KISS1R log2FoldChange: 5.189 | KLRG1 log2FoldChange: 3.015 | KNDC1 log2FoldChange: 5.452 | KRT81 log2FoldChange: 2.561 | LAMA1 log2FoldChange: 4.927 | LANCL3 log2FoldChange: 2.567 | LGI3 log2FoldChange: 4.02 | LGI4 log2FoldChange: 3.612 | LHX6 log2FoldChange: 2.492 | LINGO1 log2FoldChange: 3.184 | LMX1B log2FoldChange: 4.789 | LRAT log2FoldChange: 2.695 | LRRC4B log2FoldChange: 6.224 | LRRC63 log2FoldChange: 3.034 | LTK log2FoldChange: 2.536 | LUM log2FoldChange: 2.768 | MACC1 log2FoldChange: 2.159 | MAGEC1 log2FoldChange: 3.487 | MAK log2FoldChange: 2.409 | MDFI log2FoldChange: 3.485 | MEFV log2FoldChange: 4.614 | MEGF11 log2FoldChange: 3.91 | MGAT3 log2FoldChange: 4.144 | MME log2FoldChange: 2.372 | MORN3 log2FoldChange: 2.131 | MPP7 log2FoldChange: 2.694 | MRO log2FoldChange: 3.525 | MT3 log2FoldChange: 2.775 | MYEOV log2FoldChange: 3.238 | MYO1D log2FoldChange: 2.853 | MYOZ2 log2FoldChange: 6.009 | NALF2 log2FoldChange: 4.418 | NAT16 log2FoldChange: 3.0286 | NCALD log2FoldChange: 2.788 | NCAN log2FoldChange: 5.945 | NCCRP1 log2FoldChange: 5.22 | NECTIN4 log2FoldChange: 2.229 | NFASC log2FoldChange: 2.355 | NFATC4 log2FoldChange: 2.3144 | NFIA log2FoldChange: 2.067 | NKD1 log2FoldChange: 3.284 | NKX1-2 log2FoldChange: 2.899 | NLRP1 log2FoldChange: 3.5059 | NME5 log2FoldChange: 2.6336 | NPY2R log2FoldChange: 3.759 | NSG1 log2FoldChange: 5.809 | NTNG2 log2FoldChange: 2.905 | NXPH3 log2FoldChange: 2.7857 | OLFM2 log2FoldChange: 3.458 | OLIG2 log2FoldChange: 6.361 | OTOGL log2FoldChange: 4.502 | PALM3 log2FoldChange: 2.0048

Reference: article PMC11971462, “Generation and validation of a novel multitarget small molecule in glioblastoma” (Cell Death & Disease, 2025)
